From ChEMBL document CHEMBL1132765, “Synthesis and antibacterial activity of new carbapenems containing isoxazole moiety” (2000)
In brackets after ≈: the same amount, converted by molar mass.

What was measured:
[1] = molecular target: T1, Dipeptidase 1 (Sus scrofa) (UniProt P22412); assay: Relative t1/2 hydrolysis to meropenem by partially purified porcine renal DHP-1; assay type: functional
T1 sequence (whole entry): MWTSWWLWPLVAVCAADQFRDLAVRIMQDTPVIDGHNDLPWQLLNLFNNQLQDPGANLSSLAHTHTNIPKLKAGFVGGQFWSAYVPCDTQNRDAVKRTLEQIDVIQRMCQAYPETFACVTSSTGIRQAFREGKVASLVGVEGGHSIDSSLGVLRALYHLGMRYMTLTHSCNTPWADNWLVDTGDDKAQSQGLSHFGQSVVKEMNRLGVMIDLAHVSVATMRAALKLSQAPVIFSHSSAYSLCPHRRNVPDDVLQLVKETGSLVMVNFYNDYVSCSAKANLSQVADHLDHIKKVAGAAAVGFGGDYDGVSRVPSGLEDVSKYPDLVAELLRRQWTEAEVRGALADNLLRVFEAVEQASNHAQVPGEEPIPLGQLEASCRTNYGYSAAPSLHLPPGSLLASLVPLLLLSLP

[2] = test system: Enterobacter cloacae; assay: In vitro antibacterial activity against Enterobacter cloacae 1321E; assay type: functional
[3] = test system: Escherichia coli; assay: In vitro antibacterial activity against Escherichia coli 078; assay type: functional
[4] = test system: Escherichia coli; assay: In vitro antibacterial activity against Escherichia coli 1507E; assay type: functional
[5] = test system: Klebsiella aerogenes; assay: In vitro antibacterial activity against Klebsiella aerogenes 1522E; assay type: functional
[6] = test system: Pseudomonas aeruginosa; assay: In vitro antibacterial activity against Pseudomonas aeruginosa 1592E; assay type: functional
[7] = test system: Pseudomonas aeruginosa; assay: In vitro antibacterial activity against Pseudomonas aeruginosa 1771M; assay type: functional
[8] = test system: Pseudomonas aeruginosa; assay: In vitro antibacterial activity against Pseudomonas aeruginosa 9027; assay type: functional
[9] = test system: Salmonella typhimurium; assay: In vitro antibacterial activity against Salmonella Typhimurium; assay type: functional, Salmonella enterica subsp. enterica serovar Typhimurium
[10] = test system: Staphylococcus aureus; assay: In vitro antibacterial activity against Staphylococcus aureus 285; assay type: functional
[11] = test system: Staphylococcus aureus; assay: In vitro antibacterial activity against Staphylococcus aureus 503; assay type: functional
[12] = test system: Staphylococcus aureus; assay: In vitro antibacterial activity against Staphylococcus aureus SG511; assay type: functional
[13] = test system: Streptococcus pyogenes; assay: In vitro antibacterial activity against Streptococcus pyogenes 308A; assay type: functional
[14] = Enterobacter cloacae, read-out: MIC
[15] = Escherichia coli, read-out: MIC
[16] = Klebsiella aerogenes, read-out: MIC
[17] = Pseudomonas aeruginosa, read-out: MIC
[18] = Salmonella enterica, read-out: MIC
[19] = Staphylococcus aureus, read-out: MIC
[20] = Streptococcus pyogenes, read-out: MIC

Structure (SMILES)	Relative t1/2 [1]	MIC [2, 14] [µg/mL]	MIC [3, 15] [µg/mL]	MIC [4, 15] [µg/mL]	MIC [5, 16] [µg/mL]	MIC [6, 17] [µg/mL]	MIC [7, 17] [µg/mL]	MIC [8, 17] [µg/mL]	MIC [9, 18] [µg/mL]	MIC [10, 19] [µg/mL]	MIC [11, 19] [µg/mL]	MIC [12, 19] [µg/mL]	MIC [13, 20] [µg/mL]	other results
C[C@@H](O)[C@H]1C(=O)N2C(C(=O)O)=C(S[C@@H]3CN[C@H](C(=O)N(C)C)C3)[C@H](C)[C@H]12 [MEROPENEM]	1	0.025 (≈ 0.0652 µM)	0.025 (≈ 0.0652 µM)	0.025 (≈ 0.0652 µM)	0.049 (≈ 0.128 µM)	0.195 (≈ 0.509 µM)	0.049 (≈ 0.128 µM)	0.195 (≈ 0.509 µM)	0.049 (≈ 0.128 µM)	0.195 (≈ 0.509 µM)	0.098 (≈ 0.256 µM)	0.195 (≈ 0.509 µM)	0.013 (≈ 0.0339 µM)	–
C[C@@H](O)[C@H]1C(=O)N2C(C(=O)O)=C(S[C@@H]3CN[C@H](C4CC(CO)=NO4)C3)[C@H](C)[C@H]12 (stereo in doubt; form 1) [listing 1 of 2 here]	1.09	–	–	–	–	–	–	–	–	–	–	–	–	–
C[C@@H](O)[C@H]1C(=O)N2C(C(=O)O)=C(S[C@@H]3CN[C@H](C4CC(CO)=NO4)C3)[C@H](C)[C@H]12 (stereo in doubt; form 1) [listing 2 of 2 here]	–	0.049 (≈ 0.119 µM)	0.049 (≈ 0.119 µM)	0.049 (≈ 0.119 µM)	0.098 (≈ 0.238 µM)	0.391 (≈ 0.95 µM)	0.098 (≈ 0.238 µM)	0.391 (≈ 0.95 µM)	0.098 (≈ 0.238 µM)	0.098 (≈ 0.238 µM)	0.049 (≈ 0.119 µM)	0.098 (≈ 0.238 µM)	0.013 (≈ 0.0316 µM)	–
C[C@@H](O)[C@H]1C(=O)N2C(C(=O)O)=C(S[C@@H]3CN[C@H](C4CC(CO)=NO4)C3)[C@H](C)[C@H]12 (stereo in doubt; form 2) [listing 1 of 2 here]	–	–	–	–	–	–	–	–	–	–	–	–	–	MIC [2]: 0.025 µg/mL (≈ 0.0608 µM); MIC [3]: 0.025 µg/mL (≈ 0.0608 µM); MIC [4]: 0.025 µg/mL (≈ 0.0608 µM); MIC [5]: 0.049 µg/mL (≈ 0.119 µM); MIC [6]: 0.391 µg/mL (≈ 0.95 µM); MIC [7]: 0.195 µg/mL (≈ 0.474 µM); MIC [8]: 0.391 µg/mL (≈ 0.95 µM); MIC [9]: 0.049 µg/mL (≈ 0.119 µM); MIC [10]: 0.098 µg/mL (≈ 0.238 µM); MIC [11]: 0.049 µg/mL (≈ 0.119 µM); MIC [12]: 0.098 µg/mL (≈ 0.238 µM); MIC [13]: 0.013 µg/mL (≈ 0.0316 µM)
C[C@@H](O)[C@H]1C(=O)N2C(C(=O)O)=C(S[C@@H]3CN[C@H](C4CC[N+](C)(C)O4)C3)[C@H](C)[C@H]12.[Cl-] (some centres undefined)	1.5	0.098	0.195	0.098	0.195	0.391	0.195	0.391	0.195	0.195	0.049	0.098	0.013	–
C[C@@H](O)[C@H]1C(=O)N2C(C(=O)O)=C(S[C@@H]3CN[C@H](C4CC(CO)=NO4)C3)[C@H](C)[C@H]12 (stereo in doubt; form 2) [listing 2 of 2 here]	0.78	–	–	–	–	–	–	–	–	–	–	–	–	–
C[C@@H](O)[C@H]1C(=O)N2C(C(=O)O)=C(S[C@@H]3CN[C@H](c4cc(CO)on4)C3)[C@H](C)[C@H]12	0.8	0.025 (≈ 0.0611 µM)	0.025 (≈ 0.0611 µM)	0.025 (≈ 0.0611 µM)	0.049 (≈ 0.12 µM)	1.56 (≈ 3.82 µM)	0.391 (≈ 0.955 µM)	–	0.049 (≈ 0.12 µM)	0.098 (≈ 0.239 µM)	0.049 (≈ 0.12 µM)	0.098 (≈ 0.239 µM)	0.013 (≈ 0.0317 µM)	MIC [8]: 1.56 µg/mL (≈ 3.82 µM)
C[C@@H](O)[C@H]1C(=O)N2C(C(=O)O)=C(S[C@@H]3CN[C@H](C4CC[N+](C)(CC(N)=O)O4)C3)[C@H](C)[C@H]12.[Cl-] (some centres undefined)	1.66	0.049	0.098	0.049	0.195	0.391	0.195	0.195	0.195	0.098	0.025	0.049	0.007	–
C[C@@H](O)[C@H]1C(=O)N2C(C(=O)O)=C(S[C@@H]3CN[C@H](C4CCN(C)O4)C3)[C@H](C)[C@H]12 (some centres undefined)	1.27	0.025 (≈ 0.0629 µM)	0.098 (≈ 0.247 µM)	0.049 (≈ 0.123 µM)	0.098 (≈ 0.247 µM)	0.391 (≈ 0.984 µM)	0.195 (≈ 0.491 µM)	0.391 (≈ 0.984 µM)	0.098 (≈ 0.247 µM)	0.098 (≈ 0.247 µM)	0.049 (≈ 0.123 µM)	0.098 (≈ 0.247 µM)	0.007 (≈ 0.0176 µM)	–
CCOC(=O)C1=NOC([C@@H]2C[C@H](SC3=C(C(=O)O)N4C(=O)[C@H]([C@@H](C)O)[C@H]4[C@H]3C)CN2)C1 (some centres undefined)	0.94	0.025 (≈ 0.0551 µM)	0.013 (≈ 0.0287 µM)	0.013 (≈ 0.0287 µM)	0.049 (≈ 0.108 µM)	0.781 (≈ 1.72 µM)	0.391 (≈ 0.862 µM)	0.781 (≈ 1.72 µM)	0.049 (≈ 0.108 µM)	0.391 (≈ 0.862 µM)	0.098 (≈ 0.216 µM)	0.195 (≈ 0.43 µM)	0.025 (≈ 0.0551 µM)	–
